Results on 88 molecules are retold here after a melting point compilation (Tetko et al.; mined from patent text by program, amines drawn as free bases though some values may be those of a salt).

A value given as a limit tells only on which side of the number the result lay.

Broadly, the melting point is the temperature, or range, at which the solid turns liquid.

In turn, `COC(=O)C1=C(C)NN=C(c2ccccc2)C1c1cccc(Cl)c1` (stereo not drawn) registered a melting point of 189 °C.
Take `CCOP(=O)(OCC)C(OS(=O)(=O)c1ccc(C)cc1)c1cccc([N+](=O)[O-])c1` (stereo not drawn): the melting point was 90 to 92 °C.
`Cc1ccc(S(=O)(=O)CS(C)(=O)=O)cc1` yielded a melting point of 164 to 165 °C.
As for `C#CC1(OC(=O)NCCCC)CCN(CCC=C(c2ccc(F)cc2)c2ccc(F)cc2)CC1`, the figure is 83 to 84 °C; as for `CCON=C(C(C)=NOCc1ccccc1C(=NOC)C(=O)OC)c1ccc(Oc2ccc(Cl)cc2)cc1`, 90 to 93 °C.
`COC(=O)c1cccc(C(=O)c2cn(CC(=O)N(C)CCc3ccccc3)c3ccc(OCc4ccccc4)cc23)c1`: the melting point fell in the range of 224 to 230 °C.
On to `CS(=O)(=O)N1CCC(C(=O)N(CCCN2CCC(Cc3ccc(F)cc3)CC2)c2ccc(Cl)c(Cl)c2)CC1`, for which the melting point was in the range of 148 to 150 °C.
With `CCCC(=O)Nc1n[nH]c2cc(-c3ccncc3)ccc12` the figure was 200 °C; with `Cc1n[nH]c2ccc(-c3ccc4nnn(Cc5ccc6ncccc6c5)c4n3)cc12`, 246 to 249 °C; with `CN1C(=O)C2C3CCC(C3)C2(c2ccc(F)c(F)c2)C1=O` (stereo not drawn), 96 to 100 °C.
As for `O=c1cc(N2CCNCC2)oc2c1ccc1ccccc12`, the figure is 208 to 209 °C; as for `CC(=O)NCCSc1ccnc(CSc2nc3ccccc3[nH]2)c1C`, 211 to 213 °C.
`CN(C)CCOc1cc(O)cc(/C=C/c2ccc(O)cc2)c1`: the melting point was 92 to 94 °C.
`O=C(O)[C@H](Cc1ccccc1)N[C@@H](CCc1ccccc1)C(=O)OCc1ccccc1` came in with a melting point of 141 to 144 °C.
On to `CC(=O)Nc1ccc(C(=O)C2CCN(CC(=O)c3ccc(F)cc3)CC2)cc1`, for which the melting point lay within 168 to 170 °C.
As for `CCCCc1ncc(/C=C(\Cc2cccs2)C(N)=O)n1Cc1cccc(Cl)c1Cl`, the figure is 185 to 187 °C; as for `Cn1c(C(F)(F)F)c(Cl)c(=O)n(-c2c(F)ccc3nc(Cl)sc23)c1=O`, 81 to 83 °C.
Regarding `Cn1cc(C(=O)c2ccc(F)cc2)cc1C(=O)c1ccccn1`, the melting point lay in the range of 159 to 161 °C.
The molecule `CCCc1c(OCCCC#CCO)ccc(C(C)=O)c1O` showed a melting point of 88 to 90 °C.
Regarding `CCCCCCCCCCCCOc1ccc(C(=O)OC)cc1`, the melting point lay in the range of 56 to 57 °C.
The molecule `Cn1ncc(C(=O)N2CCCC2)c1C(=O)Nc1ccn2nc(-c3ccccc3)nc2c1` gave a melting point of 210 to 215 °C.
With `CCN1CCN(Cc2cc(C)c3c(c2)-c2[nH]nc(-c4ccsc4)c2C3)CC1`, the melting point fell in the range of 230 to 231 °C.
In the case of `COCCOC(=O)C1CCCCC1C(=O)Nc1cc(OC(C)C)c(Cl)cc1F` (stereo not drawn), the melting point is 58 to 60 °C.
As for `COC(=O)[C@H](Cc1ccc(NC(=O)c2cc(C#N)ccc2Cl)cc1)NC(=O)OC(C)(C)C`, the figure is 185 to 187 °C; as for `CC(CC(F)(F)CC(Cl)(CO)CO)C1CCC2C3CC=C4CC(O)CCC4(C)C3CCC12C` (stereo not drawn), 152 to 153 °C.
Consider `Cc1nc(-c2ccc(CCN3CCN(c4cccc(C(F)(F)F)c4)CC3)cc2)cs1`, for which the melting point is 170 to 175 °C.
With `Cc1ccccc1-c1ccc2c(c1)CC[C@H]1N(C)C(=O)CC[C@]21C` the figure was 82 to 87 °C; with `O=C1C/C(=C\c2ccccc2[N+](=O)[O-])C(=O)N1`, 148 °C.
With `CC1=C(C#Cc2ccccc2/C=C/C(C)=C/C(=O)O)C(C)(C)CCC1` the figure was 194 to 196 °C.
With `Cn1nc(-c2c(Cl)cc(C(F)(F)F)cc2Cl)c([N+](=O)[O-])c1N`, the melting point fell in the range of 107 to 108 °C.
With `COc1ccc(C2=NN(c3ccccn3)C(=O)[C@H]3CC=CC[C@@H]23)cc1OC` (relative stereo) the figure was 147 to 148 °C; with `CCN(CC)C(=O)n1ccc(S(=O)(=O)c2c(C)cc(Br)cc2C)n1`, 96 to 100 °C.
Molecule `CCCCOCCOc1ccc(-c2ccc(N3CCC(C)CC3)c(C=CC(=O)O)c2)cc1` gave a melting point of 159 to 160 °C.
Take `CC1(C)Oc2ccc(C#N)cc2C(c2ccc[nH]c2=O)C1O` (stereo not drawn): the melting point was in the range of 246 to 247 °C.
Take `O=[N+]([O-])c1cc(CO)ccc1OCc1ccccc1`: the melting point was 76 to 77 °C.
`O=C(O)[C@H](Cc1ccc(F)cc1)[C@@H](O)c1ccc(F)cc1` (racemic) came in with a melting point of 169 to 170 °C.
With `COC(=O)c1cc(C#CC(C)(C)O)cnc1C1=NC(C)(C(C)C)C(=O)N1` (stereo not drawn) the figure was 142 to 145 °C.
With `Cc1c(SCCN2CCOCC2)ccnc1CSc1nc2ccccc2n1CC(N)=O` the figure was 178 to 180 °C; with `COc1cc2ncnc(N3CCC(CCNS(C)(=O)=O)CC3)c2cc1OC`, 162 to 164 °C; with `O=C(OCc1ccccc1)[C@H](Cc1ccc(-c2ccccc2)cc1)NCP(=O)(Oc1ccccc1)Oc1ccccc1`, 85 to 86 °C.
Consider `CCOC(=O)C(C)Oc1ccc(C(C)=O)cc1` (stereo not drawn), for which the melting point was 49.6 °C.
`O=C1c2ccccc2C(=O)N1CSc1cccnc1` showed a melting point of 123 to 124 °C.
For `Cc1cccc(-c2c(CC(=O)Nc3ccc(F)cc3C(F)(F)F)c(=O)oc3cc4c(cc23)CC=C4)c1`, the melting point lay within 196 to 197 °C.
As to `CC(C)(C)COC(=O)COc1ccc(C(=O)CBr)cc1`, the melting point lay within 85 to 87 °C.
As for `CCC(C(=O)C(C)C(O)C(C)CCc1c(NC(C)=O)cc(C)c(O)c1C(=O)O)C1OC(CC)(C2CCC(O)(CC)C(C)O2)CC1C` (stereo not drawn), the figure is 189 to 190 °C.
On to `CCCC(=O)c1cnc2c(OC)cc(O)cc2c1Nc1ccc(O)cc1C`, for which the melting point lay in the range of 251 to 253 °C.
Consider `COc1ccc2ccc(NC(=O)c3cccc(O)c3)nc2n1`, for which the melting point is 295 °C.
As for `CC1CN(c2cccc(F)c2)N=C1N` (stereo not drawn), the figure is 78 to 80 °C.
The molecule `Nc1cc(CN2CCC2)cc(C(F)(F)F)c1` yielded a melting point of 60 to 61 °C.
The molecule `Clc1ccc2c(c1)C(c1ccccc1)=NCc1nnc(COC(c3ccccc3)c3ccccc3)n1-2` showed a melting point of 202 to 203 °C.
`CCOC(=O)c1ccccc1SC1C(=O)N(c2c(Cl)cc(Cl)cc2Cl)N=C1OC` (stereo not drawn) showed a melting point of 185 to 187 °C.
In turn, `C=CCn1c(NCc2cccnc2)nc(N2CCc3ccccc3CC2)c(C#N)c1=O` yielded a melting point above 200 °C.
As for `O=C(c1ccccc1)c1cc(C(F)(F)F)ccc1NC=C[N+](=O)[O-]`, the melting point lay within 196 to 198 °C.
With `Cc1cc(C(C)(C)C)c(O)c(S(=O)(=O)Nc2ccc([N+](=O)[O-])cc2Cl)c1`, the melting point was 239 to 243 °C.
With `CCCCCCCCCCCCCCCCCCOc1cc(OCCCCCCOc2ccc(OCc3ccccc3)cc2)cc(C(=O)OCc2ccccc2)c1` the figure was 60 to 62 °C.
In turn, `COC(=O)CCc1cnoc1-c1ccc(-c2ccccc2)cc1` showed a melting point of 103 to 104 °C.
With `CC(C)CNc1c(N)c2nnnn2c2ccccc12`, the melting point was 148 to 150 °C.
As to `Cc1c(C)c2c(c(C)c1O)CCC(C)(CCc1ccccc1)O2` (stereo not drawn), the melting point was in the range of 96 to 98 °C.
Molecule `Nc1ccn(CC(O)CO)c(=O)n1` (stereo not drawn) showed a melting point of 169 to 171 °C.
With `COc1ccccc1-c1c(CC(=O)O)oc(=O)c2ccccc12` the figure was 143 to 144 °C; with `CC(C)(C)OC(=O)N1CC[C@H](Oc2ccc([N+](=O)[O-])cc2)C1`, 112 to 114 °C.
As for `c1ccc2c(c1)CCc1c-2noc1N1CCNCC1`, the melting point fell in the range of 97 to 99 °C.
`CCOC(=O)c1ccc(Cn2cnc3ccncc32)cc1` gave a melting point of 110 to 112 °C.
As for `Cc1cc(CO)ccn1`, the figure is 58 to 59 °C; as for `Cc1nnc(-c2cn3c4c(cccc24)CCC3)o1`, 70 to 72 °C.
As to `CCc1c(OC)cc(C)c(C=CC(C)=CC=CC(C)=CC(=O)O)c1C`, the melting point fell in the range of 197 to 198 °C.
`COc1cc2ncnc(N3CCC(C(C)(O)COS(=O)(=O)c4ccc(C)cc4)CC3)c2cc1OC` (stereo not drawn) registered a melting point of 120 to 124 °C.
Regarding `COc1cc(OC)nc(Sc2c(NC(=O)C(F)(F)F)nc(C)n2C)n1`, the melting point was in the range of 160 to 162 °C.
Molecule `CCOC(=O)c1cn(CC)c2cc(C(=O)C=C(C)N(C)C)ccc2c1=O` gave a melting point of 178 to 180 °C.
`Cn1c(=O)[nH]c2cc(CC(=O)O)ccc21` had a melting point of 220 °C.
With `COc1ccc(C(C)COc2nc(N)c3ncn(C4OC(CO)C(O)C4O)c3n2)cc1` (stereo not drawn) the figure was 90 to 105 °C; with `CCOC(=O)C(=NOC(C)C)c1csc(NC(c2ccccc2)(c2ccccc2)c2ccccc2)n1`, 182 °C; with `Clc1ccc2c(c1)Cn1cccc1C(C1CCN(CCc3ccccc3)CC1)O2` (stereo not drawn), 145 to 147 °C.
Consider `NC(=O)C(Nc1ncccc1[N+](=O)[O-])c1c(Cl)cccc1Cl` (stereo not drawn), for which the melting point was 207 °C.
As for `Cc1cc(CN(C(=O)CCl)c2c(C)cccc2C)on1`, the figure is 78 to 82 °C; as for `COc1ccc(C(=O)Nc2ccc(F)c(F)c2)cc1N`, 171 to 172 °C.
In turn, `CN1CCN(c2cccc3c2C[C@H](NC(=O)c2ccc(C(=O)C(F)(F)F)cc2)CC3)CC1` displayed a melting point of 91 to 93 °C.
For the molecule `CCc1nc2cnc3ccccc3c2s1`, the melting point was 48 to 49 °C.
As for `Nc1nc(OC2CCCC2)c2ncn(C3C=CC(CO)C3)c2n1` (stereo not drawn), the figure is 188 to 190 °C; as for `O=c1cc(-c2ccccc2)c2c(OCc3nnn[nH]3)cc(OCc3nnn[nH]3)cc2o1`, 222 to 224 °C.
For the molecule `COc1cc2c(cc1OC)C(Cc1cc(I)c(N)c(I)c1)NCC2` (stereo not drawn), the melting point was 169 to 171 °C.
`C=CCc1c(Cl)cc2c(c1O)CCC2` showed a melting point of 37 to 39 °C.
The molecule `CCN(C(=O)OC(C)(C)C)C1CC=C(c2c[nH]c3ccc([N+](=O)[O-])cc23)CC1` (stereo not drawn) gave a melting point of 217 to 219 °C.
As for `CCCN1CCN(C(=O)C(Cl)Cl)CC1`, the figure is 88 °C; as for `O=C(NCCN1CCCC1)c1ccc(OCc2ccc(-c3ccccc3)cc2)cc1`, 173 to 175 °C.
`Cc1cc(F)ccc1-c1cnccn1` yielded a melting point of 66 to 68 °C.
`O=C(O)c1cccc(-c2ccc3c(c2)C(c2cc(Cl)ccc2Cl)CC3)c1` (stereo not drawn) showed a melting point of 229 to 230 °C.
As for `O=c1[nH]c(CCN2CCCCC2)cc2c(O)cccc12`, the figure is 261 to 263 °C.
